From ChEMBL document CHEMBL3525901 (Drug Metab Dispos, 2012) come the findings set out here.

A word on the AUC(0-inf): it is the area under the concentration-time curve extrapolated to infinity. The low end stands for low exposure, the high end for high exposure. As usually defined, the Cmax is the maximum level reached in the sampled fluid or tissue. The term fraction unbound denotes free concentration divided by total concentration. Low values mean little free substance, high ones much free substance. A word on the CL/F: it is the apparent clearance, not corrected for the fraction that reaches the circulation.

Holding throughout (assay type): ADME, organism-based
Data set [1] in a line: AUC (0 to infinity) in Wistar rat extracellular fluid at […], sc by HPLC-MS/MS analysis. Also noted: dose 1.6 mg/kg, route subcutaneous, time infinity.
Data set [2] can be described thus: Cmax in Wistar rat extracellular fluid at […], sc by HPLC-MS/MS analysis. Also noted: dose 1.6 mg/kg, route subcutaneous.
Data set [3] can be described thus: Tmax in Wistar rat extracellular fluid at […], sc by HPLC-MS/MS analysis. Also noted: dose 1.6 mg/kg, route subcutaneous.
Data set [4] concerns Rattus norvegicus. Nature of the data set: Central volume of distribution in Wistar rat extracellular fluid at […], sc by HPLC-MS/MS analysis. Also noted: dose 1.6 mg/kg, route subcutaneous. The conditions noted are these: in vivo.
Data set [5] can be described thus: Fraction unbound in Wistar rat plasma at […], sc by HPLC-MS/MS analysis. Also noted: dose 1.6 mg/kg, route subcutaneous.
Data set [6] relates to Plasma. The data set is described as follows: Unbound AUC (0 to infinity) in Wistar rat plasma at […], sc by HPLC-MS/MS analysis. Also noted: dose 1.6 mg/kg, route subcutaneous. Particulars: in vivo.
The subject of data set [7] is Plasma. The data set is described as follows: Unbound Cmax in Wistar rat plasma at […], sc by HPLC-MS/MS analysis. Also noted: dose 1.6 mg/kg, route subcutaneous. Particulars: in vivo.
Data set [8] in a line: Unbound Tmax in Wistar rat plasma at […], sc by HPLC-MS/MS analysis. Also noted: dose 1.6 mg/kg, route subcutaneous. Particulars: read-out: fTmax (converted).
A short description of data set [9]: Systemic clearance in Wistar rat extracellular fluid at […], sc by HPLC-MS/MS analysis. Also noted: dose 1.6 mg/kg, route subcutaneous.
For data set [10], the system named is Rattus norvegicus. The data set is described as follows: Absorption rate constant in Wistar rat extracellular fluid at […], sc by HPLC-MS/MS analysis. Also noted: dose 1.6 mg/kg, route subcutaneous. Particulars: in vivo.
The subject of data set [11] is Brain. Nature of the data set: Unbound volume of distribution in Wistar rat brain at […], sc by HPLC-MS/MS analysis. Also noted: dose 1.6 mg/kg, route subcutaneous. The conditions noted are these: in vivo.
Data set [12] is described as follows: Ratio of uptake clearance to efflux clearance in Wistar rat brain extracellular fluid at […], sc by HPLC-MS/MS analysis. Also noted: dose 1.6 mg/kg, route subcutaneous. Particulars: in vivo.
Data set [13] can be described thus: Ratio of unbound AUC in extracellular fluid to unbound AUC in plasma of Wistar rat at […], sc by HPLC-MS/MS analysis. The conditions noted are these: read-out: Ratio AUC. Also noted: dose 1.6 mg/kg, route subcutaneous.
The nature of data set [14]: Ratio of steady state drug level in extracellular fluid to unbound drug level in plasma of Wistar rat at […], sc by HPLC-MS/MS analysis. Also noted: dose 1.6 mg/kg, route subcutaneous.
Data set [15] in a line: Equilibration rate constant in Wistar rat brain extracellular fluid at […], sc by HPLC-MS/MS analysis. Also noted: dose 1.6 mg/kg, route subcutaneous. Particulars: in vivo.
Data set [16] can be described thus: AUC (0 to infinity) in Wistar rat extracellular fluid at 3 mg/kg, sc by HPLC-MS/MS analysis. Also noted: time infinity, dose 3 mg/kg, route subcutaneous.
Data set [17] can be described thus: Cmax in Wistar rat extracellular fluid at 3 mg/kg, sc by HPLC-MS/MS analysis. Also noted: dose 3 mg/kg, route subcutaneous.
Data set [18] in a line: Tmax in Wistar rat extracellular fluid at 3 mg/kg, sc by HPLC-MS/MS analysis. Also noted: dose 3 mg/kg, route subcutaneous.
Data set [19] has as its system Rattus norvegicus. Nature of the data set: Central volume of distribution in Wistar rat extracellular fluid at 3 mg/kg, sc by HPLC-MS/MS analysis. Also noted: dose 3 mg/kg, route subcutaneous. Particulars: in vivo.
Data set [20] is described as follows: Fraction unbound in Wistar rat plasma at 3 mg/kg, sc by HPLC-MS/MS analysis. Also noted: dose 3 mg/kg, route subcutaneous.
Data set [21] relates to Plasma. Nature of the data set: Unbound AUC (0 to infinity) in Wistar rat plasma at 3 mg/kg, sc by HPLC-MS/MS analysis. Particulars: in vivo. Also noted: dose 3 mg/kg, route subcutaneous.
For data set [22], the system named is Plasma. Nature of the data set: Unbound Cmax in Wistar rat plasma at 3 mg/kg, sc by HPLC-MS/MS analysis. The conditions noted are these: in vivo. Also noted: dose 3 mg/kg, route subcutaneous.
Data set [23] in a line: Unbound Tmax in Wistar rat plasma at 3 mg/kg, sc by HPLC-MS/MS analysis. Also noted: dose 3 mg/kg, route subcutaneous. Particulars: read-out: fTmax (converted).
The nature of data set [24]: Systemic clearance in Wistar rat extracellular fluid at 3 mg/kg, sc by HPLC-MS/MS analysis. Also noted: dose 3 mg/kg, route subcutaneous.
For data set [25], the system named is Rattus norvegicus. Nature of the data set: Absorption rate constant in Wistar rat extracellular fluid at 3 mg/kg, sc by HPLC-MS/MS analysis. Also noted: dose 3 mg/kg, route subcutaneous. Particulars: in vivo.
Data set [26] has as its system Brain. Nature of the data set: Unbound volume of distribution in Wistar rat brain at 3 mg/kg, sc by HPLC-MS/MS analysis. Also noted: dose 3 mg/kg, route subcutaneous. The conditions noted are these: in vivo.
A short description of data set [27]: Ratio of uptake clearance to efflux clearance in Wistar rat brain extracellular fluid at 3 mg/kg, sc by HPLC-MS/MS analysis. Also noted: dose 3 mg/kg, route subcutaneous. The conditions noted are these: in vivo.
The nature of data set [28]: Ratio of unbound AUC in extracellular fluid to unbound AUC in plasma of Wistar rat at 3 mg/kg, sc by HPLC-MS/MS analysis. Also noted: dose 3 mg/kg, route subcutaneous. Particulars: read-out: Ratio AUC.
Data set [29] can be described thus: Ratio of steady state drug level in extracellular fluid to unbound drug level in plasma of Wistar rat at 3 mg/kg, sc by HPLC-MS/MS analysis. Also noted: dose 3 mg/kg, route subcutaneous.
Data set [30] in a line: Equilibration rate constant in Wistar rat brain extracellular fluid at 3 mg/kg, sc by HPLC-MS/MS analysis. Also noted: dose 3 mg/kg, route subcutaneous. Particulars: in vivo.
Data set [31] can be described thus: AUC (0 to infinity) in Wistar rat extracellular fluid at 10 mg/kg, sc by HPLC-MS/MS analysis. Also noted: time infinity, dose 10 mg/kg, route subcutaneous.
A short description of data set [32]: Cmax in Wistar rat extracellular fluid at 10 mg/kg, sc by HPLC-MS/MS analysis. Also noted: dose 10 mg/kg, route subcutaneous.
Data set [33] can be described thus: Tmax in Wistar rat extracellular fluid at 10 mg/kg, sc by HPLC-MS/MS analysis. Also noted: dose 10 mg/kg, route subcutaneous.
In data set [34] the test system is Rattus norvegicus. The data set is described as follows: Central volume of distribution in Wistar rat extracellular fluid at 10 mg/kg, sc by HPLC-MS/MS analysis. Also noted: dose 10 mg/kg, route subcutaneous. Particulars: in vivo.
Data set [35] is described as follows: Fraction unbound in Wistar rat plasma at 10 mg/kg, sc by HPLC-MS/MS analysis. Also noted: dose 10 mg/kg, route subcutaneous.
The subject of data set [36] is Plasma. Nature of the data set: Unbound AUC (0 to infinity) in Wistar rat plasma at 10 mg/kg, sc by HPLC-MS/MS analysis. Also noted: dose 10 mg/kg, route subcutaneous. Particulars: in vivo.
The test system of data set [37] is Plasma. The data set is described as follows: Unbound Cmax in Wistar rat plasma at 10 mg/kg, sc by HPLC-MS/MS analysis. Also noted: dose 10 mg/kg, route subcutaneous. The conditions noted are these: in vivo.
A short description of data set [38]: Unbound Tmax in Wistar rat plasma at 10 mg/kg, sc by HPLC-MS/MS analysis. Also noted: dose 10 mg/kg, route subcutaneous. Particulars: read-out: fTmax (converted).
Data set [39] is described as follows: Systemic clearance in Wistar rat extracellular fluid at 10 mg/kg, sc by HPLC-MS/MS analysis. Also noted: dose 10 mg/kg, route subcutaneous.
The subject of data set [40] is Rattus norvegicus. The data set is described as follows: Absorption rate constant in Wistar rat extracellular fluid at 10 mg/kg, sc by HPLC-MS/MS analysis. Also noted: dose 10 mg/kg, route subcutaneous. The conditions noted are these: in vivo.
In data set [41] the test system is Brain. Nature of the data set: Unbound volume of distribution in Wistar rat brain at 10 mg/kg, sc by HPLC-MS/MS analysis. Also noted: dose 10 mg/kg, route subcutaneous. The conditions noted are these: in vivo.
The nature of data set [42]: Ratio of uptake clearance to efflux clearance in Wistar rat brain extracellular fluid at 10 mg/kg, sc by HPLC-MS/MS analysis. Particulars: in vivo. Also noted: dose 10 mg/kg, route subcutaneous.
The nature of data set [43]: Ratio of unbound AUC in extracellular fluid to unbound AUC in plasma of Wistar rat at 10 mg/kg, sc by HPLC-MS/MS analysis. Particulars: read-out: Ratio AUC. Also noted: dose 10 mg/kg, route subcutaneous.
Data set [44] can be described thus: Ratio of steady state drug level in extracellular fluid to unbound drug level in plasma of Wistar rat at 10 mg/kg, sc by HPLC-MS/MS analysis. Also noted: dose 10 mg/kg, route subcutaneous.
Data set [45] can be described thus: Equilibration rate constant in Wistar rat brain extracellular fluid at 10 mg/kg, sc by HPLC-MS/MS analysis. Particulars: in vivo. Also noted: dose 10 mg/kg, route subcutaneous.
A short description of data set [46]: AUC (0 to infinity) in rat. Also noted: time infinity. Particulars: plasma.

The molecule `CN(C)CCC[C@@]1(c2ccc(F)cc2)OCc2cc(C#N)ccc21` [ESCITALOPRAM] gave an AUC(0-inf) in data set [1] of 0.197 µM·h. Besides, the highest level in data set [2] (Cmax) was 62 nM. The results for the Tmax in [3] and in data set [8] were 2 h and 0.433 h, respectively. For the same molecule, the Vd in [4] was found to be 4.1 L/kg. Also, in data set [5], the free fraction (fraction unbound) stood at 0.5. In data set [6], this molecule returned a fAUC of 13888 nM·min. The molecule further registered a fCmax in data set [7] of 131 nM. In data set [9], this molecule registered an apparent clearance (CL/F) of 277 mL/min/kg. Moreover, in data set [10], the ka is 0.02 min⁻¹. The Vdu in [11] was found to be 18 mL/g. Also, the Ratio in data set [12] stood at 1.24. The Kp uu in data set [13] is 0.86; in [14], 1.06. The Ke in data set [15] was 0.015 min⁻¹.
For the molecule `Cc1nc2n(c(=O)c1CCN1CCC(c3noc4cc(F)ccc34)CC1)CCCC2` [RISPERIDONE], the AUC(0-inf) in data set [16] is 0.0591 µM·h. Also, in data set [17], the Cmax stood at 20 nM. The values for the Tmax in [18] and in data set [23] were 1.25 h and 0.883 h, respectively. Besides, the Vd in [19] came out at 21 L/kg. In addition, in [20], the fraction unbound came to 0.16. The fAUC in [21] worked out at 24022 nM·min. The molecule also gave a fCmax in data set [22] of 181 nM. Further, in data set [24], the CL/F was 307 mL/min/kg. Further, the ka in data set [25] came out at 0.03 min⁻¹. Further, in data set [26], the Vdu is 10 mL/g. The Ratio in data set [27] is listed as 0.14. Besides, the Kp uu in data set [28] was 0.15; in [29], 0.21. Further, the Ke in data set [30] stood at 0.006 min⁻¹.
Turning to `Clc1ccc2c(c1)N=C(N1CCNCC1)c1ccccc1N2` [N-DESMETHYLCLOZAPINE], in [31], the area under the curve AUC(0-inf) is 0.0134 µM·h. Also, the highest level in data set [32] (Cmax) was 2 nM. The Tmax was 4.63 h in [33] and 1.05 h in [38]. The Vd in [34] stood at 607 L/kg. Also, in data set [35], the free fraction (fraction unbound) is 0.11. This molecule also gave a fAUC in data set [36] of 32296 nM·min. This molecule yielded a fCmax in data set [37] of 90 nM. Moreover, the CL/F in data set [39] worked out at 1600 mL/min/kg. This molecule came in with a ka in data set [40] of 0.5 min⁻¹. In data set [41], this molecule yielded a Vdu of 82 mL/g. Also, the Ratio in [42] is given as 0.05. Also, the Kp uu in [43] was 0.03; in data set [44] it was 0.04. Moreover, in [45], the Ke stood at 0.006 min⁻¹.
For the molecule `CN1CCN(C2=Nc3cc(Cl)ccc3Nc3ccccc32)CC1` [CLOZAPINE], the AUC(0-inf) was 0.0443 µM·h in data set [31] and 5.39 µM·h in [46]. The same molecule yielded a Cmax in [32] of 6 nM. Moreover, the results for the Tmax in [33] and in data set [38] were 4 h and 1 h, respectively. In data set [35], this molecule showed a fraction unbound of 0.061. In data set [36], this molecule gave a fAUC of 19732 nM·min. Further, the fCmax in [37] came to 77 nM. The same molecule returned a Vdu in [41] of 70 mL/g. In addition, the figures for the Kp uu in data set [43] and in data set [44] were 0.15 and 0.13, respectively.
